The values that follow come from patent US20200131144A1, “AMINE OR (THIO)AMIDE CONTAINING LXR MODULATORS” (Phenex-FXR GmbH, priority 2017, published 2020).

Data set [1] addresses T1, GST-LXRβ ligand-binding domain (Homo sapiens, UniProt P55055, INS174Q).
T1 construct: amino acids 156-461; NP009052; made in house; host or cells: E. coli
T1 sequence (P55055 with tags, fused parts or gaps INS174Q limits assumed): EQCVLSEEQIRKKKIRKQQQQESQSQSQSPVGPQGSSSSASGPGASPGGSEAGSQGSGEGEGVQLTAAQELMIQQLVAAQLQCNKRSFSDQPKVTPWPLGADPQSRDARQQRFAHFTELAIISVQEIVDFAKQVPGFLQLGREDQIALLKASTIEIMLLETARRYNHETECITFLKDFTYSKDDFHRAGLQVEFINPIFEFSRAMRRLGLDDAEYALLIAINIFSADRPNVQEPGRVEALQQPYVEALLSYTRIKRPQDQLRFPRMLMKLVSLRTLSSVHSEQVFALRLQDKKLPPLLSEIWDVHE
As to the kind of experiment: TR-FRETβ activity assay (NCoA3 coactivator peptide recruitment). The data set is classed as biochemical. The settings on record: 1 μM 24(S)-25-epoxycholesterol as prestimulating agonist; inverse agonist unless *. The method in brief: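 Coactivator recruitment read as TR-FRET (ex 340, em 615 and 665 nm) after 1 h equilibration at 4° C, in triplicate. Mix held 76 nM GST-tagged LXRβ LBD (aa 156-461, E. coli), 400 nM biotin-NCoA3 peptide, Tb-cryptate anti-GST, streptavidin-XL665, 240 mM KCl buffer.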

Data set [2] addresses T2, LXRα full length (FL) (Homo sapiens, UniProt Q13133).
T2 construct: the full length (FL) proteins of LXRα (amino acids 1-447); NP005684; expressed in transfected cells; host or cells: HEK293
T2 sequence (Q13133 1-447): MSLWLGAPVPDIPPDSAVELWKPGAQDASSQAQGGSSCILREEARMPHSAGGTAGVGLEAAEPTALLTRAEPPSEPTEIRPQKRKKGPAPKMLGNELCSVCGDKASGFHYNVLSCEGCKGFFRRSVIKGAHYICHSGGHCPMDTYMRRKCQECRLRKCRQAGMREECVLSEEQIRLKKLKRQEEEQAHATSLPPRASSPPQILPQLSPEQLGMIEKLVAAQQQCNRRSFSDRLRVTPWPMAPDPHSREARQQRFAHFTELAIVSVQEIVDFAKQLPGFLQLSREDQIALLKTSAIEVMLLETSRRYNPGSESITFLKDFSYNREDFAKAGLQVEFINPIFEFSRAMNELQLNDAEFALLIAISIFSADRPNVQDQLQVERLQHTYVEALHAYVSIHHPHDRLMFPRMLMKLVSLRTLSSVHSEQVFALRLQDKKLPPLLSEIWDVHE
As to the kind of experiment: LXR Gal4 reporter transient transfection assay, mammalian two-hybrid, FL-M2H Gal4α. The settings on record: HEK293 cells; inverse agonist unless *. The data set is classed as cell-based. Put shortly: (§1)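 Mammalian two-hybrid read-out: interaction of LXRα or LXRβ (full length or ligand-binding domain, NFkB activation-domain fusions) with GAL4-fused SRC1 or NCoR domains drives GAL4-responsive firefly luciferase in HEK293 cells, normalised by Renilla cotransfection. Compounds given 4 h after transfection, ≤0.2% vehicle, cells lysed after 16 h.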

The target in data set [3] is T3, LXRβ full length (FL) (Homo sapiens, UniProt P55055, INS174Q).
T3 construct: the full length (FL) proteins of LXRα (amino acids 1-447); NP005684; NP009052; expressed in transfected cells; host or cells: HEK293
T3 sequence (P55055 with tags, fused parts or gaps INS174Q): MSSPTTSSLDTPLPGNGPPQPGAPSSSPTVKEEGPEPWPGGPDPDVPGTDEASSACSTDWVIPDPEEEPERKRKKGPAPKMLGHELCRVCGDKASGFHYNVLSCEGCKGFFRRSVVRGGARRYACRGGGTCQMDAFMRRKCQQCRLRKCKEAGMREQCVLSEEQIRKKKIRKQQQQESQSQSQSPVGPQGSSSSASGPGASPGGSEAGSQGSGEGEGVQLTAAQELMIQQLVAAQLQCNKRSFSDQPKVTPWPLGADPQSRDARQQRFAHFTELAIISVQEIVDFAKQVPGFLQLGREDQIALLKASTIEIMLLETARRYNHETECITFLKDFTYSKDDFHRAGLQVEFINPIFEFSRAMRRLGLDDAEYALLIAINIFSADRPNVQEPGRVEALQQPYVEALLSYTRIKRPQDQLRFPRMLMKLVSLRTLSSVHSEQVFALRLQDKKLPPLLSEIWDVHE
Description: LXR Gal4 reporter transient transfection assay, mammalian two-hybrid, FL-M2H Gal4β. The class given is cell-based. The settings on record: HEK293 cells; inverse agonist unless *. The method in brief: as §1

Data set [4] is described as follows: Pharmacokinetics in mice after single oral dosing, blood and liver exposure by LC-MS. The data set is classed as in vivo, mice (C57/bl6/J). Here is the method: The pharmacokinetics of the compounds was assessed in mice after single dosing and oral administrations. Blood and liver exposure was measured via LC-MS.
The study design was as follows:
Animals: C57/bl6/J (Janvier) males Diet: standard rodent chow Dose: 20 mg/kg Animal handling: animals were withdrawn from food at least 12 h before administration Design: single dose oral administration, n=3 animals per group Sacrifice: at stated time point (4, 12 or 24 h) after administration Bioanalytics: LC-MS of liver and blood samples

[5] abbreviates: male, C57/bl6/J, mouse, liver/blood, single oral dose 20 mg/kg, time point 4 h, read-out: liver/blood ratio.
Where [6] appears, read: single oral dose 20 mg/kg, time point 4 h.
Setting [7] is: single oral dose 20 mg/kg, time point 12 h.

A value given as a limit tells only on which side of the number the result lay.

As usually defined, the EC50 is the midpoint of the concentration-response curve. Turning to `Cc1cc(C)c(CN(Cc2ccc(-c3cc(F)c(CO)c(S(=O)(=O)CC(=O)O)c3)cc2)Cc2ccc(C(F)(F)F)o2)c(C)c1` [20/1], the EC50 is 0.1 to 1 µM in data set [1], 1 to 10 µM in data set [2] and 0.1 to 1 µM in data set [3]. The Kp at 4 h in data set [4] (setting [5]) was determined as 64. The same compound yielded a blood/plasma exposure in data set [4] (setting [6]) of 1.0 µM. For the same compound, the liver exposure in data set [4] (setting [6]) was 64 µM.
As to `CCOC(=O)c1ccc(CN(Cc2ccc(-c3cccc(S(C)(=O)=O)c3)cc2)S(=O)(=O)c2c(C)cc(C)cc2C)o1` [SR9238, reference compound], the oral bioavailability entry in data set [4] (single dose oral administration, 20 mg/kg) was “not orally bioavailable and hepatoselective”.
With `Cc1cc(C)c(CN(Cc2ccc(-c3cncc(S(=O)(=O)CC(=O)O)c3)cc2)Cc2ccc(C(F)(F)F)o2)c(C)c1` [12/2], the Kp at 12 h in data set [4] (male, C57/bl6/J, mouse, liver/blood, single oral dose 20 mg/kg, time point 12 h, read-out: liver/blood ratio) came out at 2.4. In data set [4] (setting [7]), this compound registered a blood/plasma exposure of 0.34 µM and a liver exposure of 0.83 µM.
For the compound `Cc1ccc2ccccc2c1C(=O)N(Cc1ccc(-c2cccc(C(C)(C)c3noc(=O)[nH]3)c2)cc1)Cc1ccc(C(F)(F)F)o1` [Example 29, 2-Methyl-N-((3′-(2-(5-oxo-4,5-dihydro-1,2,4-oxadiazol-3-yl)propan-2-yl)-[1,1′-biphenyl]-4-yl)methyl)-N-((5-(trifluoromethyl)furan-2-yl)methy)-1-naphthamide], the EC50 in data set [1] is 0.1 to 1 µM; in data set [2], < 0.1 µM; in data set [3] it was < 0.1 µM.
As for `COCc1c(C)cc(C)c(C(=O)N(Cc2ccc(-c3cccc(C(C)(C)C(=O)O)c3)cc2)Cc2ccc(C(F)(F)F)o2)c1C` [27/50], the EC50 was 0.1 to 1 µM in data set [1], < 0.1 µM in data set [2] and < 0.1 µM in data set [3].
In the case of `CCOC(=O)c1ccc(CN(Cc2ncc(-c3cccc(C(C)C(=O)O)c3)cc2Cl)C(=O)c2c(C)c(C)nc3ccccc23)o1` (stereo not shown) [27/98], the EC50 in data set [1], in data set [2] and in data set [3] was 0.1 to 1 µM each time.
On to `Cc1cc(C)c(CN(Cc2ccc(C(F)(F)F)o2)Cc2ccc(-c3cccc(S(=O)(=O)CC(=O)O)c3)cc2C)c(C)c1` [15/1], for which the EC50 lay in the range of 1 to 10 µM in data set [1], 1 to 10 µM in data set [2] and 0.1 to 1 µM in data set [3].
For `Cc1nc2cccnc2c(C(=O)N(Cc2ccc(-c3cccc(C(C)(C)C(=O)O)c3)cc2)Cc2nc(C(F)(F)F)cs2)c1C` [27/130], the values for the EC50 in data set [1], in data set [2] and in data set [3] were 0.1 to 1 µM, < 0.1 µM and < 0.1 µM, respectively.
In the case of `Cc1ccc2ccc(C#N)cc2c1CN(Cc1ccc(-c2cccc(C(C)(C)C(=O)O)c2)cc1)Cc1ccc(C(F)(F)F)o1` [27/27], the concentration for a half-maximal effect (EC50) is 0.1 to 1 µM in data set [1], < 0.1 µM in data set [2] and < 0.1 µM in data set [3].
Take `CCc1cc(C)c(CN(Cc2ccc(-c3cccc(C(C)(C)C(=O)O)c3)cc2)Cc2ccc(C(F)(F)F)o2)c(C)c1` [27/32]: the EC50 in data set [1], in data set [2] and in data set [3] was < 0.1 µM in each case.
`Cc1cnc2ccccc2c1C(=O)N(Cc1ccc(-c2cccc(C(C)(C)C(=O)O)c2)cc1)Cc1ccc(C(F)(F)F)o1` [27/103]: the EC50 in data set [1], in data set [2] and in data set [3] was < 0.1 µM in each case.
In the case of `COC(=O)CS(=O)(=O)c1cccc(-c2ccc(CN(Cc3ccc(C(F)(F)F)o3)C(C)c3cccc4ccccc34)cc2)c1` (stereo not shown) [Example 6, Methyl 2-((4′-(((1-(naphthalen-1-yl)ethyl)((5-(trifluoromethyl)furan-2-yl)methyl)amino)methyl)-[1,1′-biphenyl]-3-yl)sulfonyl)acetate], the Kp at 4 h in data set [4] (setting [5]) was determined as 45. In data set [4] (setting [6]), this compound showed a blood/plasma exposure of 0.20 µM and a liver exposure of 9.08 µM.
Regarding `COc1ccc2ccccc2c1CN(Cc1ccc(-c2cccc(S(=O)(=O)CC(=O)O)c2)cc1)Cc1ccc(C(F)(F)F)o1` [7/5], the EC50 in data set [1], in data set [2] and in data set [3] was 0.1 to 1 µM in each case.
As to `Cc1nc2ncccc2c(C(=O)N(Cc2ccc(-c3cccc(C(C)(C)C(=O)O)c3)cc2)Cc2ccc(C(F)(F)F)o2)c1C` [27/92], the EC50 in data set [1] is 0.1 to 1 µM; in data set [2], 0.1 to 1 µM; in data set [3] it was < 0.1 µM.
